Reference: US7928057B2, “Peptide for inhibition of calcineurin, nucleic acid, antibody, and diagnostic and therapeutic methods of use” (Julius-Maximilians-Universitaet Wuerzburg, priority 2006, dated 2011)
Entries after “also recorded” stand apart in the source; their conditions may differ. Where no end group is shown, it is not given here.

Columns and labels:
[1] = test system: cJUN, ERK 1/2, GATA4, NFAT2; assay: Specificity: nuclear accumulation of other transcription factors in phenylephrin stimulated cardiomyocytes; assay type: cell-based; conditions: cardiomyocytes stimulated with phenylephrin; FIG. 9
Excerpt: The inventor also analyzed the specificity with the peptide (AAVALLPAVLAALAA KQECKIKYSERV SEQ ID NO: 5). In theory this peptide that mimics the Calcineurin NLS saturates the binding site on importin and therefore might completely block importin function for other transcription factors as well.

Ang II treated mice = assay: Ang II (osmotic minipump) induced myocardial hypertrophy in mice; assay type: in vivo; conditions: for development of myocardial hypertrophy in vivo (heart/body weight ratio, molecular markers, echocardiography): cyclic peptide 25 mg/kg body weight/day i.p.; for dilation of the left ventricle (left ventricular end diastolic diameter, LVEDD): mice with implanted mini-osmotic pumps with AngII, FIG. 8
Method: For in vivo use the blocking peptide, that mimics the calcineurin nuclear localization signal (NLS) received a peptide extension to increase membrane permeability and was synthesised as a cyclic peptide to withstand proteolysis of N- and C-terminal proteases. This peptide was administered twice daily at a concentration of 25 mg/kg body weight/day by i.p. injections into mice. The mice were treated with implanted osmotic minipumps to release either angiotensin II or saline as control.
The inventor now extended his experiments to in vivo data.

T cells = T cells stimulated with spleen dendritic cells (H3-thymidin incorporation); assay type: cell-based; conditions: T cells stimulated with spleen dendritic cells and simultaneously treated with peptide; FIG. 6
Excerpt: Bars indicate protein synthesis (H3-thymidin incorporation).
The inventor now extended the experiments to T-cells and to in vivo experiments in mice.

[2] = target: T1, calcineurin (CnA)/importin β1 interaction (Homo sapiens, UniProt Q14974); assay: Peptide competition / co-immunoprecipitation of calcineurin with importin β1; assay type: binding; conditions: HeLa cells transfected with GFP-tagged CnA mutants (FIG. 3)
T1 construct: expressed in transfected cells; host or cells: HeLa cells (importin β1 endogenous, EGFP-CnAβ transfected)
T1 sequence (Q14974 whole entry): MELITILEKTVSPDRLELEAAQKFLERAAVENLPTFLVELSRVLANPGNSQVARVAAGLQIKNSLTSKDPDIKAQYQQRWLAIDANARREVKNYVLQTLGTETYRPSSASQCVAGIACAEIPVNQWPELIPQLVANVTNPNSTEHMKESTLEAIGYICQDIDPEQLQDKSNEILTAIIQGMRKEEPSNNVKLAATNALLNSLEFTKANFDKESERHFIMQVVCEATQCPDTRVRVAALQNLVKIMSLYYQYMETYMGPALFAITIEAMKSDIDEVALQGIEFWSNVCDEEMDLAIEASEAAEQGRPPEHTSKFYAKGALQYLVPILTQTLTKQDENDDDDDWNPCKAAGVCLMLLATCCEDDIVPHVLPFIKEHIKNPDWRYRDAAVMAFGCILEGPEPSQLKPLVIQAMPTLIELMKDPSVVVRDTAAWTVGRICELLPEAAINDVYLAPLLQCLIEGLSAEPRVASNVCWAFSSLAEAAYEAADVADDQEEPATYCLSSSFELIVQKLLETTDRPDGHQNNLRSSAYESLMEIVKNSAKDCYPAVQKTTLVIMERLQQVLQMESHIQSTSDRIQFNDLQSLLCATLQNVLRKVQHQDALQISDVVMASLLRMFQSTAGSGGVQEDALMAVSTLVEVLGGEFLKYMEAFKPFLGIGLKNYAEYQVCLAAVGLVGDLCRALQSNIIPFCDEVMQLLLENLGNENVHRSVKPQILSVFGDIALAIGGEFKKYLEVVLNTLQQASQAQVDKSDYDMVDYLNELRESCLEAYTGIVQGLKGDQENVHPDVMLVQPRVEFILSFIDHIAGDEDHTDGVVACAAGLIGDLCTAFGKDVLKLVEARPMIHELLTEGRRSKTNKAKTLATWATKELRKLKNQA
Method: Immunoprecipitation of the CnA/importin complexes was performed with importin β1 antibodies, detection with a GFP antibody.
Epitope-tagged derivatives of calcineurin Aβ containing amino-terminal EGFP were generated using the mammalian expression vector pEGFP-C3 (BD Bioscience Clontech). For cloning of calcineurin mutants the mammalian expression vector pCMV-Sport6 containing the directionally cloned cDNA of human calcineurin Aβ was used (Invitrogen). The following mutants have been amplified by PCR, digested with XbaI and XhoI and cloned into the XbaI and XhoI sites of the described plasmid: CnAβ(full), CnAβ 1-415, CnAβ 1-425, CnAβ 1-445, CnAβ 1-465, CnAβ 1-485 and CnAβ 171-190. For these truncated mutants different reverse oligonucleotides were designed with subsequent N-terminal binding sites. The forward primer, binding at the N-terminus of calcineurin, was identical for each plasmid apart from the CnA(171-190) mutant. For this derivative primers are bound upstream of aa 171 and downstream of aa 190, respectively. Two internal mutants CnAβ(Δ420-434) and CnAβ(Δ420-445) were cloned into the XbaI and XhoI sites of pEGFP-C3 using a two step strategy. […]
(§1) The subcellular distribution of calcineurin was determined by immunofluorescence stainings. The primary antibodies used in fluorescence staining are described elsewhere (Burkhard et al., 2005). […]

[3] = test system: nuclear import of calcineurin (CnA) via importin β1; assay: Peptide competition assay: nuclear import of calcineurin in cardiomyocytes; assay type: cell-based; conditions: neonatal rat cardiomyocytes stimulated with Ang II; peptide added to the medium (1 μM)
Method: (§2) Neonatal rat cardiomyocytes were incubated with a peptide mimicking the NLS sequence of CnA (SEQ ID NO:2) and stimulated with Ang II ([…]). […] Nuclear import of CnA was therefore prevented. Control experiments were performed with a non-sense peptide SEQ ID NO: 3).
(§3) Neonatal rat cardiomyocytes of Wistar rats were isolated as described previously (Ritter et al., 2003). Cells were resuspended in minimum essential medium/1% FCS. After preplating, the cardiomyocyte containing supernatant was recovered, and cells were plated in minimum essential medium on 6-well plates at a density of 1×10^6 cells per well. The medium for cardiomyocytes contained 5-bromo-2′-deoxyuridine (0.1 mmol/L) to suppress fibroblast growth. Fibroblast contamination of cardiomyocyte cultures was between 4% and 7% as regularly determined by immunohistochemical staining for troponin T. HeLa cells were grown in DMEM/5% FCS (Sigma). 48 hours after preparation, cells were stimulated with 10 nmol/L angiotensin II (Ang II). Cells were harvested 24 hours after stimulation. Concentrations were as follows: Ang II: 10 μM, calpeptin: 10 μM, NLS peptide and control peptide: 1 μM, respectively.
as §1

calcineurin (CnA) = assay: CnA phosphatase activity (specific phosphosubstrate RII, Biomol kit); assay type: biochemical, rat; conditions: cardiomyocytes stimulated with Ang II (10 μM); n=8, p=not significant
Method: as §3, with “48 hours after preparation, cells were stimulated with 10 nmol/L angiotensin II (Ang II). Cells were harvested 24 hours after stimulation. Concentrations were as follows: Ang II: 10 μM, calpeptin: 10 μM, NLS peptide and control peptide: 1 μM, respectively.” left out
NF-ATc reporter plasmid comprised the II-2 promoter followed by luciferase. Luciferase activity was determined according to the manufacturer's protocol (Promega). CnA phosphatase activity was determined using a commercial kit (CnA kit assay, Biomol) that measures effect on a specific CnA phosphosubstrate. […]
Phosphatase activity, transcriptional activity, protein synthesis, cell size and makers of myocardial hypertrophy in response to the peptide related inhibition of CnA nuclear import were examined. Phosphatase activity was assessed employing a specific substrate (RII) for can (Ritter et al., 2002). Cardiomyocytes were stimulated with Ang II (10 μM), and CnA phosphatase activity was measured in the presence of the NLS peptide or a non sense control peptide. […]

NFAT Luciferase reporter = NFAT Luciferase reporter transgenic mice treated with angiotensin II; assay type: in vivo
[4] = test system: neonatal rat cardiomyocytes; assay: Markers of myocardial hypertrophy in Ang II stimulated cardiomyocytes (protein synthesis, cell size, BNP); assay type: cell-based; conditions: cardiomyocytes stimulated with Ang II (10 μM); n=8, p<0.05
Method: as §2, §3
(§4) Phosphatase activity, transcriptional activity, protein synthesis, cell size and makers of myocardial hypertrophy in response to the peptide related inhibition of CnA nuclear import were examined. Phosphatase activity was assessed employing a specific substrate (RII) for can (Ritter et al., 2002). Cardiomyocytes were stimulated with Ang II (10 μM), and CnA phosphatase activity was measured in the presence of the NLS peptide or a non sense control peptide. […] Similarly, myocardial hypertrophy, as evidenced by protein synthesis (707±21% vs. 133±12%, n=8, p<0.05), cell size (1191±91 μm^2 vs. 728±65 μm^2, n=8, p<0.05) (FIG. 5B), and expression of brain natriuretic peptide (BNP) (163±11% vs. 88±8%, n=8, p<0.05) (FIG. 5C), were suppressed by the NLS peptide.

[5] = test system: CnA/NF-ATc signalling pathway; assay: NF-ATc luciferase reporter plasmid transcriptional activity; assay type: cell-based, rat
Method: as §3
NF-ATc reporter plasmid comprised the II-2 promoter followed by luciferase. Luciferase activity was determined according to the manufacturer's protocol (Promega). CnA phosphatase activity was determined using a commercial kit (CnA kit assay, Biomol) that measures effect on a specific CnA phosphosubstrate. Free PO4 was indicated by a malachite green dye. The use of this kit has been described previously (Ritter et al., 2002).
as §4

CRM1 = target: T2, CRM1 (Rattus norvegicus, UniProt Q80U96); assay: CRM1 mediated nuclear export of CnA in cardiomyocytes; assay type: cell-based; conditions: full length CnA imported by Ang II stimulation, calpeptin added
T2 construct: endogenous in cells; host or cells: cardiomyocytes (neonatal rat)
T2 sequence (Q80U96 whole entry): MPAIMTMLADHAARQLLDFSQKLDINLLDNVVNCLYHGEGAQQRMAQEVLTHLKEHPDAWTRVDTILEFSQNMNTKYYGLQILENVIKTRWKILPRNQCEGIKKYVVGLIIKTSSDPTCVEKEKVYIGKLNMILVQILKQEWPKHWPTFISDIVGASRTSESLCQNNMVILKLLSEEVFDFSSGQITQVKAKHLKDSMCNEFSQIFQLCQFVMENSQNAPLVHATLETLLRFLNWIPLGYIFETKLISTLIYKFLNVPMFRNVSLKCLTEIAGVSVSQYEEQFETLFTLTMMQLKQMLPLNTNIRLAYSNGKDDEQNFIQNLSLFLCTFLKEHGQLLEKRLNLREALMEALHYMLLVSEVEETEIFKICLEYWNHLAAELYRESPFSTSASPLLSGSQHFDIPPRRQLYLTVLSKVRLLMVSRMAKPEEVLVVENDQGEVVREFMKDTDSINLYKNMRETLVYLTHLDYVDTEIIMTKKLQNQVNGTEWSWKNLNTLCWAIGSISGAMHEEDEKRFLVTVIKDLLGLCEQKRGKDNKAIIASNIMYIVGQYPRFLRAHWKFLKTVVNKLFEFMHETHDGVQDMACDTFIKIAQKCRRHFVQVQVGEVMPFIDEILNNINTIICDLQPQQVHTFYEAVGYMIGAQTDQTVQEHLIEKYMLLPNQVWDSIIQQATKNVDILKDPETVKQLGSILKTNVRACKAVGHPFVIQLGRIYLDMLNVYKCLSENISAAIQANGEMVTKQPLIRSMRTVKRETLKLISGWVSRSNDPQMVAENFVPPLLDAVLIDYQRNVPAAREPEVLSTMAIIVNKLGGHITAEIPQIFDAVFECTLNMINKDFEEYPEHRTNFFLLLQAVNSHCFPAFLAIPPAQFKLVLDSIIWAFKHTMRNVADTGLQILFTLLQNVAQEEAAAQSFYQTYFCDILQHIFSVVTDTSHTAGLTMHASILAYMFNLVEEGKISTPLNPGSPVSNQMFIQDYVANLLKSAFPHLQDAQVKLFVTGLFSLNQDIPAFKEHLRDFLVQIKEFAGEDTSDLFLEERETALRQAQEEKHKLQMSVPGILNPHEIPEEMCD
Method: To address whether CnA nuclear export is mediated by CRM1, experiments using the CRM1 specific inhibitor, leptomycin B (LMB), were performed. Agonist-dependent nuclear import of full length CnA was achieved by Ang II stimulation. Calpeptin was added to prevent proteolysis of CnA.

total CnA phosphatase activity (calcineurin (CnA)) [%]	Compound	nuclear accumulation/import of selected transcription factors (cJUN, ERK 1/2, GATA4, NFAT2) [1]	development of myocardial hypertrophy in vivo (heart/body weight ratio, molecular markers, echocardiography) (Ang II treated mice; Ang II minipump mice)	calcineurin interaction/binding with importin β1 [2]	nuclear import (translocation) of CnA [3]	dilation of the left ventricle (left ventricular end diastolic diameter, LVEDD) (Ang II treated mice)	further results
–	blocking peptide: mimics the calcineurin NLS, with peptide extension to increase membrane permeability; synthesised as a cyclic peptide for in vivo use (AAVALLPAVLLALLAKQECKIKYSERV; also: synthesised as cyclic peptide, mode not given here)	did not prevent nuclear accumulation	able to prevent the development of myocardial hypertrophy; also recorded: prevents myocardial hypertrophy	–	–	–	calcineurin entry into the nucleus in vivo (Ang II treated mice; Ang II minipump mice, cellular level): suppressed calcineurin entry into the nucleus; heart weight (Ang II treated mice; mice treated with Ang II for 4 weeks, cyclic peptide with membrane permeability extension, 25 mg/kg body weight/day i.p. twice daily, FIG. 7A): prevented an increase in heart weight; T cell protein synthesis (H3-thymidin incorporation) / activation of lymphocytes (T cells): inhibited significantly; also recorded: significantly prevented activation of lymphocytes
–	AAVALLPAVLAALAA KQECKIKYSERV (AAVALLPAVLAALAAKQECKIKYSERV; alternative nucl loc signal plus membrane anker) [SEQ ID NO: 5]	did not block import	–	–	–	–	–
289±17	AAVALLPAVLLALLAAQECAIAYSEYV (control peptide and membrane anker) [non sense peptide used in control experiments, reference compound]	–	–	did not interfere with the calcineurin/importin binding	not inhibited	did not prevent left ventricular dilation	–
273±11	AAVALLPAVLLALLAKQECKIKYSERV (nuclear localisation signal and membrane anker) [NLS peptide]	–	able to suppress the development of myocardial hypertrophy in vivo	prevented CnA binding to importin β1; also recorded: abrogated the interaction of calcineurin and importin β1	suppressed calcineurin nuclear import	dilation could prevented	Luciferase activity (NFAT Luciferase reporter): suppressed Luciferase activity; f-MHC expression as molecular marker of hypertrophy (Ang II treated mice; mice treated with angiotensin for 4 weeks, FIG. 7B): prevented expression of this marker; cell size [4]: 728±65 μm^2; expression of brain natriuretic peptide (BNP) [4]: 88±8%; protein synthesis [4]: 133±12%; transcriptional activity of the CnA/NF-ATc signalling pathway ([5]; cardiomyocytes stimulated with Ang II (10 μM), n=8, p<0.05): 123±8%; transcriptional activity of calcineurin/NF-ATc (NF-ATc luciferase reporter plasmid), in words ([5]; neonatal rat cardiomyocytes, Ang II, FIG. 5A bottom, FIG. 5D): dose dependent manner
–	CCC(=C/[C@H](C)C/C=C/C(C)=C/[C@@H](C)C(=O)[C@@H](C)[C@H](O)[C@@H](C)C/C(C)=C/C(=O)O)/C=C/[C@@H]1OC(=O)C=C[C@@H]1C [LMB, leptomycin B]	–	–	–	–	–	nuclear export of CnA (CRM1): suppressed nuclear export of CnA
–	KQECKIKYSERV [SEQ ID NO: 2]	–	–	–	–	–	toxic effect ([5]; higher concentrations (>1 μM), values below background levels of untreated cardiomyocytes, FIG. 5D): toxic effect is possible
